Experiments:
Assay in all cases: Test D pre-/postemergence plant response
Type in all cases: in vivo
[1] = tested on: Italian ryegrass (Lolium multiflorum); details: Postemergence
Outline: (§1)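 Ratings come from greenhouse-grown weeds in loam and sand treated pre- or postemergence (postemergence height 2 to 18 cm). Evaluation after 14–21 days, visual, relative to controls, on a 0–100 control scale.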

[2] = tested on: Surinam grass (Brachiaria decumbens); details: Postemergence
Outline: as §1

[3] = tested on: bluegrass (annual bluegrass, Poa annua); details: Postemergence
Outline: as §1

[4] = tested on: chickweed (common chickweed, Stellaria media); details: Postemergence
Outline: as §1

[5] = tested on: field bindweed (Convolvulus arvensis); details: Postemergence
Outline: as §1

[6] = tested on: goosegrass (Eleusine indica); details: Postemergence
Outline: as §1

[7] = tested on: groundsel (common groundsel, Senecio vulgaris); details: Postemergence
Outline: as §1

[8] = tested on: johnsongrass (Sorghum halepense); details: Postemergence
Outline: as §1

[9] = tested on: kochia (Kochia scoparia); details: Postemergence
Outline: as §1

[10] = tested on: large crabgrass (Digitaria sanguinalis); details: Postemergence
Outline: as §1

[11] = tested on: morningglory (pitted morningglory, Ipomoea lacunosa); details: Postemergence
Outline: as §1

[12] = tested on: naked crabgrass (Digitaria nuda); details: Postemergence, scale 0 to 100 (0 no effect, 100 complete control)
Outline: as §1

[13] = tested on: nutsedge (purple nutsedge, Cyperus rotundus); details: Postemergence
Outline: as §1

[14] = tested on: purslane (common purslane, Portulaca oleracea); details: Postemergence
Outline: as §1

[15] = tested on: spanishneedles (Bidens bipinnata); details: Postemergence
Outline: as §1

[16] = 125 g ai/ha, scale 0 to 100 (0 no effect, 100 complete control)
[17] = 250 g ai/ha, scale 0 to 100 (0 no effect, 100 complete control)
[18] = 62 g ai/ha, scale 0 to 100 (0 no effect, 100 complete control)

SMILES: CCCn1c(-c2ccccc2)ncc(C(=O)C2=C(O)C3CCC(C3)C2=O)c1=O (stereo not shown) [Compound 226]
- Plant response rating, Ryegrass, Italian [1, 16]: 0
- Plant response rating, Ryegrass, Italian [1, 17]: 15
- Plant response rating, Ryegrass, Italian [1, 18]: 0
- Plant response rating, Surinam Grass [2, 16]: 90
- Plant response rating, Surinam Grass [2, 17]: 90
- Plant response rating, Surinam Grass [2, 18]: 70
- Plant response rating, Bluegrass ([3]; 31 g ai/ha, scale 0 to 100 (0 no effect, 100 complete control)): 0
- Plant response rating, Bluegrass [3, 16]: 10
- Plant response rating, Bluegrass [3, 17]: 30
- Plant response rating, Bluegrass [3, 18]: 10
- Plant response rating, Chickweed [4, 16]: 35
- Plant response rating, Chickweed [4, 17]: 85
- Plant response rating, Chickweed [4, 18]: 35
- Plant response rating, Field Bindweed [5, 16]: 70
- Plant response rating, Field Bindweed [5, 17]: 80
- Plant response rating, Field Bindweed [5, 18]: 70
- Plant response rating, Goosegrass [6, 16]: 70
- Plant response rating, Goosegrass [6, 17]: 75
- Plant response rating, Goosegrass [6, 18]: 70
- Plant response rating, Groundsel [7, 16]: 95
- Plant response rating, Groundsel [7, 17]: 100
- Plant response rating, Groundsel [7, 18]: 90
- Plant response rating, Johnsongrass [8, 16]: 80
- Plant response rating, Johnsongrass [8, 17]: 90
- Plant response rating, Johnsongrass [8, 18]: 80
- Plant response rating, Kochia [9, 16]: 70
- Plant response rating, Kochia [9, 17]: 70
- Plant response rating, Kochia [9, 18]: 60
- Plant response rating, Crabgrass, Large [10, 16]: 75
- Plant response rating, Crabgrass, Large [10, 17]: 85
- Plant response rating, Crabgrass, Large [10, 18]: 75
- Plant response rating, Morningglory [11, 16]: 70
- Plant response rating, Morningglory [11, 17]: 80
- Plant response rating, Morningglory [11, 18]: 70
- Plant response rating, Crabgrass, Naked ([12]; 125 g ai/ha): 70
- Plant response rating, Crabgrass, Naked ([12]; 250 g ai/ha): 75
- Plant response rating, Crabgrass, Naked ([12]; 62 g ai/ha): 65
- Plant response rating, Nutsedge, Purple [13, 16]: 0
- Plant response rating, Nutsedge, Purple [13, 17]: 5
- Plant response rating, Nutsedge, Purple [13, 18]: 0
- Plant response rating, Purslane [14, 16]: 65
- Plant response rating, Purslane [14, 17]: 70
- Plant response rating, Purslane [14, 18]: 50
- Plant response rating, Spanishneedles [15, 16]: 75
- Plant response rating, Spanishneedles [15, 17]: 80
- Plant response rating, Spanishneedles [15, 18]: 75

SMILES: CCCCn1c(-c2ccccc2)ncc(C(=O)C2=C(O)C3CCC(C3)C2=O)c1=O (stereo not shown) [Compound 240]
- Plant response rating, Ryegrass, Italian ([1]; 31 g ai/ha, scale 0 to 100): 0
- Plant response rating, Ryegrass, Italian [1, 16]: 35
- Plant response rating, Ryegrass, Italian [1, 17]: 35
- Plant response rating, Ryegrass, Italian [1, 18]: 35
- Plant response rating, Surinam Grass ([2]; 31 g ai/ha, scale 0 to 100): 70
- Plant response rating, Surinam Grass [2, 16]: 95
- Plant response rating, Surinam Grass [2, 17]: 95
- Plant response rating, Surinam Grass [2, 18]: 70
- Plant response rating, Bluegrass ([3]; 31 g ai/ha, scale 0 to 100): 5
- Plant response rating, Bluegrass [3, 16]: 35
- Plant response rating, Bluegrass [3, 17]: 35
- Plant response rating, Bluegrass [3, 18]: 35
- Plant response rating, Chickweed ([4]; 31 g ai/ha, scale 0 to 100): 25
- Plant response rating, Chickweed [4, 16]: 60
- Plant response rating, Chickweed [4, 17]: 70
- Plant response rating, Chickweed [4, 18]: 50
- Plant response rating, Field Bindweed ([5]; 31 g ai/ha, scale 0 to 100): 60
- Plant response rating, Field Bindweed [5, 16]: 70
- Plant response rating, Field Bindweed [5, 17]: 70
- Plant response rating, Field Bindweed [5, 18]: 70
- Plant response rating, Goosegrass ([6]; 31 g ai/ha, scale 0 to 100): 70
- Plant response rating, Goosegrass [6, 16]: 80
- Plant response rating, Goosegrass [6, 17]: 80
- Plant response rating, Goosegrass [6, 18]: 70
- Plant response rating, Groundsel ([7]; 31 g ai/ha, scale 0 to 100): 100
- Plant response rating, Groundsel [7, 16]: 100
- Plant response rating, Groundsel [7, 17]: 100
- Plant response rating, Groundsel [7, 18]: 100
- Plant response rating, Johnsongrass ([8]; 31 g ai/ha, scale 0 to 100): 70
- Plant response rating, Johnsongrass [8, 16]: 95
- Plant response rating, Johnsongrass [8, 17]: 95
- Plant response rating, Johnsongrass [8, 18]: 90
- Plant response rating, Kochia ([9]; 31 g ai/ha, scale 0 to 100): 20
- Plant response rating, Kochia [9, 16]: 65
- Plant response rating, Kochia [9, 17]: 70
- Plant response rating, Kochia [9, 18]: 65
- Plant response rating, Crabgrass, Large ([10]; 31 g ai/ha, scale 0 to 100): 40
- Plant response rating, Crabgrass, Large [10, 16]: 65
- Plant response rating, Crabgrass, Large [10, 17]: 70
- Plant response rating, Crabgrass, Large [10, 18]: 65
- Plant response rating, Morningglory ([11]; 31 g ai/ha, scale 0 to 100): 65
- Plant response rating, Morningglory [11, 16]: 90
- Plant response rating, Morningglory [11, 17]: 95
- Plant response rating, Morningglory [11, 18]: 80
- Plant response rating, Nutsedge, Purple ([13]; 31 g ai/ha, scale 0 to 100): 0
- Plant response rating, Nutsedge, Purple [13, 16]: 5
- Plant response rating, Nutsedge, Purple [13, 17]: 20
- Plant response rating, Nutsedge, Purple [13, 18]: 5
- Plant response rating, Purslane ([14]; 31 g ai/ha, scale 0 to 100): 0
- Plant response rating, Purslane [14, 17]: 50
- Plant response rating, Purslane [14, 18]: 35
- Plant response rating, Spanishneedles ([15]; 31 g ai/ha, scale 0 to 100): 65
- Plant response rating, Spanishneedles [15, 16]: 75
- Plant response rating, Spanishneedles [15, 17]: 75
- Plant response rating, Spanishneedles [15, 18]: 65

SMILES: COCCCn1c(-c2cc(F)cc(F)c2)ncc(C(=O)C2=C(O)C3CCC(C3)C2=O)c1=O (stereo not shown) [Compound 244]
- Plant response rating, Ryegrass, Italian ([1]; 31 g ai/ha, scale 0 to 100): 5
- Plant response rating, Ryegrass, Italian [1, 16]: 35
- Plant response rating, Ryegrass, Italian [1, 17]: 60
- Plant response rating, Ryegrass, Italian [1, 18]: 15
- Plant response rating, Surinam Grass ([2]; 31 g ai/ha, scale 0 to 100): 75
- Plant response rating, Surinam Grass [2, 16]: 80
- Plant response rating, Surinam Grass [2, 17]: 80
- Plant response rating, Surinam Grass [2, 18]: 75
- Plant response rating, Bluegrass ([3]; 31 g ai/ha, scale 0 to 100): 0
- Plant response rating, Bluegrass [3, 16]: 10
- Plant response rating, Bluegrass [3, 17]: 20
- Plant response rating, Bluegrass [3, 18]: 10
- Plant response rating, Chickweed ([4]; 31 g ai/ha, scale 0 to 100): 15
- Plant response rating, Chickweed [4, 16]: 40
- Plant response rating, Chickweed [4, 17]: 60
- Plant response rating, Chickweed [4, 18]: 20
- Plant response rating, Field Bindweed ([5]; 31 g ai/ha, scale 0 to 100): 20
- Plant response rating, Field Bindweed [5, 16]: 65
- Plant response rating, Field Bindweed [5, 17]: 70
- Plant response rating, Field Bindweed [5, 18]: 35
- Plant response rating, Goosegrass ([6]; 31 g ai/ha, scale 0 to 100): 50
- Plant response rating, Goosegrass [6, 16]: 70
- Plant response rating, Goosegrass [6, 17]: 70
- Plant response rating, Goosegrass [6, 18]: 60
- Plant response rating, Groundsel ([7]; 31 g ai/ha, scale 0 to 100): 100
- Plant response rating, Groundsel [7, 16]: 100
- Plant response rating, Groundsel [7, 17]: 100
- Plant response rating, Groundsel [7, 18]: 100
- Plant response rating, Johnsongrass ([8]; 31 g ai/ha, scale 0 to 100): 70
- Plant response rating, Johnsongrass [8, 16]: 75
- Plant response rating, Johnsongrass [8, 17]: 75
- Plant response rating, Johnsongrass [8, 18]: 70
- Plant response rating, Kochia ([9]; 31 g ai/ha, scale 0 to 100): 25
- Plant response rating, Kochia [9, 16]: 50
- Plant response rating, Kochia [9, 17]: 65
- Plant response rating, Kochia [9, 18]: 50
- Plant response rating, Crabgrass, Large ([10]; 31 g ai/ha, scale 0 to 100): 70
- Plant response rating, Crabgrass, Large [10, 16]: 75
- Plant response rating, Crabgrass, Large [10, 17]: 75
- Plant response rating, Crabgrass, Large [10, 18]: 75
- Plant response rating, Morningglory ([11]; 31 g ai/ha, scale 0 to 100): 65
- Plant response rating, Morningglory [11, 16]: 75
- Plant response rating, Morningglory [11, 17]: 75
- Plant response rating, Morningglory [11, 18]: 70
- Plant response rating, Nutsedge, Purple ([13]; 31 g ai/ha, scale 0 to 100): 0
- Plant response rating, Nutsedge, Purple [13, 16]: 10
- Plant response rating, Nutsedge, Purple [13, 17]: 35
- Plant response rating, Nutsedge, Purple [13, 18]: 0
- Plant response rating, Purslane ([14]; 31 g ai/ha, scale 0 to 100): 25
- Plant response rating, Purslane [14, 16]: 50
- Plant response rating, Purslane [14, 17]: 50
- Plant response rating, Purslane [14, 18]: 50
- Plant response rating, Spanishneedles ([15]; 31 g ai/ha, scale 0 to 100): 65
- Plant response rating, Spanishneedles [15, 16]: 75
- Plant response rating, Spanishneedles [15, 17]: 75
- Plant response rating, Spanishneedles [15, 18]: 65

— patent US8952024B2, “Herbicidal pyrimidone derivatives” (E I du Pont de Nemours and Company, priority 2009, dated 2015)
